Results reported in ChEMBL document CHEMBL5365457, “Selective HDAC3 Inhibitors with Potent In Vivo Antitumor Efficacy against Triple-Negative Breast Cancer” (J Med Chem, 2023).
Calls of active or inactive are those of the source. The calls are words filed in the database; no cut-off is given here.

Key:
[1] = Half life in Wistar rat at 5 mg/kg, ip measured upto 24 hrs by HPLC analysis; type: ADME, organism-based; details: in vivo
4T1 = experiment: Antitumor activity against mouse 4T1 cells implanted in BALB/c mouse assessed as increase in number of lung nodules at 15 mg/kg, ip measured for 7 days by fluorescence based assay; type: functional, organism-based; details: time 7.0 day
[2] = Apparent oral clearance in Wistar rat at 15 mg/kg, ip measured upto 24 hrs by HPLC analysis; type: ADME, organism-based; details: in vivo
[3] = Toxicity in BALB/c mouse implanted with mouse 4T1 cells assessed as effect on cell size in liver at 5 to 15 mg/kg, ip measured after 21 days by H and E staining based assay; type: organism-based; details: in vivo, 504 h, dose 5-15 mg/kg, time 21 day
[4] = Tmax in Wistar rat at 15 mg/kg, ip measured upto 24 hrs by HPLC analysis; type: ADME, organism-based; details: in vivo

For CCCNNC(=O)c1cnc(NCc2ccc(OC)cc2)cn1, the half-life [1] was 7.19 h, the Activity (4T1) was “Active” and the CL/F [2] was 1.3 (mg/kg)/(ug/ml).hr. For the same compound, the Activity [3] was “Non-Toxic” and the Tmax [4] was 2 h.
